Laboratory results from patent US20220168329A1, “COMBINATORIAL DRUG TREATMENT OF CANCER” (University of Virginia Patent Foundation, priority 2019, published 2022).

Columns and labels:
mPanc96 and PANC-1 cells = test: Crystal violet colony formation assay; type: cell-based, Human
Procedure: Pancreatic cancer cells were seeded in a flat-bottom 12-well plate (Corning) at a density of 1-2×10^3 cells per well. The following day, cells were treated with gemcitabine and EPZ015666 or EPZ015938 for two weeks. Culture media were replaced every week with fresh medium in the presence of drugs. Wells were washed with PBS, then stained for 30 min with crystal violet solution (0.4% crystal violet, 10% formaldehyde, 80% methanol). After staining, wells were washed once with PBS and water. The plate was dried out overnight and imaged using a scanner. Colonies were measured and analyzed with ImageJ (National Institutes of Health).

PRMT5 = test: Western blot of global SDMA in cells; type: cell-based, Human; conditions: increasing concentrations (nM)
Procedure: (§1) Cells were washed with cold PBS and lysed in RIPA buffer (Cell Signaling Technology). After centrifugation at 14,000 rpm for 15 minutes at 4° C., the supernatants were collected and the protein concentrations were measured using BCA protein assay reagent (BIO-RAD). Subsequently, equal amounts of proteins were separated in NuPAGE 4-12% Bis-Tris gradient gel (Invitrogen #NP0335) and transferred onto nitrocellulose membranes (Invitrogen #B301002). After blocking with 5% milk, the membranes were then probed at 4° C. overnight with various primary antibodies: anti-γ-H2AX (Cell Signaling), anti-phospho-Chk1 (Ser345) (Cell Signaling), anti-phospho-Chk2 (Thr68) (Cell Signaling), anti-PRMT5 (Abcam), anti-RPA1 (Abcam), anti-phospho-RPA2 (S4/S8) (Bethyl Laboratories), anti-RPA2 (Ab-2) (Calbiochem), cleaved caspase-3 (Cell Signaling), and anti-β-actin (Sigma); washed with TBST (20 mM Tris, 150 mM NaCl, 0.1% polysorbate 20; pH 7.6); and incubated with horseradish peroxidase (HRP)-conjugated secondary antibodies (Promega) at room temperature for 1 hour. Finally, after washing with TBST, the antibody-bound membranes were treated with enhanced chemiluminescent Western blot detection reagents (GE Healthcare) and visualized with an x-ray film (GE Healthcare).

HeLa DR13-9 cell line = test: I-SceI reporter assay, homology-directed repair (HDR); type: cell-based, Human; conditions: Gem 250 nM and/or EPZ015666 500 nM, 24 hours
Procedure: (§2) NHEJ and HR assays to examine the repair efficiency of I-SceI inducible-double strand breaks (DSBs) were performed using NHEJ/DsRed293B and HeLa DR13-9 cell lines, respectively, as previously described with slight modifications. Briefly, 3×10^5 cells were plated on 6-well dishes and 2 μg I-SceI expression vector […] was transfected using Lipofectamine2000 (Invitrogen). 24 hours post-transfection, the indicated amount of gemcitabine and/or EPZ015666 was incubated with cells for 24 hours. The DsRed- and GFP-expressing cells were counted in flow cytometric analysis (BD FACS Calibur and CellQuest Pro) by the FL2 and FL1 channels for NHEJ and HR repair efficiency, respectively. […] To this end, we used I-SceI endonuclease-based genetic reporters where relative efficiency of DSB repair by either pathway could be robustly quantified. […] However, exogenous expression of I-SceI leads to a DSB repair and creation of either dsRED+ or GFP+ cells, which can be quantified to assess relative NHEJ or HDR repair efficiencies by quantifying the percentage of dsRED+ or GFP+ cells upon I-SceI expression. […] We then assessed whether PRMT5 inhibitor alone or in combination with Gem results in differential NHEJ activity. […]

xenograft tumors = test: γ-H2AX and SDMA levels in extracted tumor tissues (IHC, Western blot); type: in vivo, mice
Procedure: as §1, with “Healthcare). We also extracted tumors to analyze their morphology and molecular structure through H&E and IHC for selected markers. […] To assess whether the combination treatment abolished PRMT5 function in vivo, we evaluated the overall levels of the γ-H2AX and the symmetric […] of arginine (SDMA) in WT tumors, PRMT5 KO tumors as well as single-agent and combination-treated WT tumors.” for “Healthcare).”

WT and PRMT5 KO cells = test: Western blot of Caspase-3 cleavage (apoptosis) in WT and PRMT5 KO cells; type: cell-based, Human; conditions: WT vs PRMT5 KO cells, increasing doses (nM)
Procedure: as §1

NHEJ/DsRed293B cell line = test: I-SceI reporter assay, NHEJ; type: cell-based, Human; conditions: Gem 250 nM and/or EPZ015666 500 nM, 24 hours
Procedure: as §2

[1] = test system: WT and PRMT5 knockout (KO) PDAC cells (mPanc96, PANC-1); test: MTT cell viability assay, WT vs PRMT5 KO clones; type: cell-based; conditions: Homo sapiens
Procedure: PDX366, mPanc96, and PANC-1 cells were seeded in a flat-bottom 96-well plate (Corning) in triplicate at a density of 1-2×10^3 cells per well. The following day, cells were treated with gemcitabine (GEMZAR; Eli Lilly) and EPZ015666 (GSK3235025; SelleckChem) or EPZ015938 (GSK3326595; ChemieTek) for 4-5 days prior to MTT (3-(4,5-dimethylthiazolyl)-2,5-diphenyltetrazolium bromide) to determine effects of drugs on cell viability. Culture media were replaced with fresh RPMI, which had 10% FBS and 10% MTT (5 mg/mL) and incubated for 4 hours in a humidified (37° C., 5% CO2) incubator. 100 μL MTT solvent (10% SDS in 0.01 M HCl) was added to each well, and cells were incubated overnight. The absorbance was read at 595 nm.
To better study the role of PRMT5 in the cellular response to Gem, we generated multiple single KO clones in two additional pancreatic cancer cell lines (mPanc96 and PANC-1) (FIG. 2A). […] However, the clones with even partial PRMT5 depletion were nearly an order of magnitude more sensitive to Gem compared to wild-type (WT) clones (4-5 μM vs. ˜50 μM IC50) as measured by cell viability assay (FIG. 2B).

[2] = test system: WT and PRMT5 KO mPanc96 tumors; test: Xenograft of WT and PRMT5 KO mPanc96 cells treated with Gem; type: in vivo, nude mice; conditions: Gem 50 mg/kg or 100 mg/kg i.p.
Procedure: To develop xenograft tumors, Control sgRNA infected WT cells and PRMT5-KO cells were subcutaneously injected into the dorsal flanks of 8 week-old nude mice, which were obtained from the Jackson Laboratory (Bar Harbor, Me., USA). When the tumors were visible (approximately 30 mm^3 in volume), the mice received respective gemcitabine treatments via intraperitoneal (i.p.) injection. After weekly monitoring, time to appearance of the tumor was recorded, and the tumor volume was measured by caliper. The tumor volume was calculated as follows: volume=longest tumor diameter×(shortest tumor diameter) 2/2. After 35 days of treatment, the mice were euthanized by CO2 inhalation, and the tumor tissues were collected for further analyses. […] Initially, we tested whether tumors formed by WT and PRMT5 KO cells were differentially sensitive to Gem treatment. To be able to better compare the tumors from these two genetic backgrounds, we injected 5×10^5 WT mPanc96 cells in the left flank and the same number of the PRMT5 KO cells in the right flank of the same mouse. This strategy enabled us to compare the two tumors grown in the same mouse. After one week of tumor formation, the mice were randomly divided into three groups where one received control, and the other two received two separate Gem doses (50 mg/kg or 100 mg/kg).

PDAC cells = test: Western blot of DNA damage and cell cycle checkpoint markers and RPA2; type: cell-based, Human; conditions: time-course, KO cells compared to WT cells
Procedure: as §1

mPanc96 cells [3] = test: Comet assay (DNA strand breaks); type: cell-based, Human; conditions: PRMT5 KO or PRMT5-inhibited cells treated with Gem vs WT and control-treated cells
Procedure: The comet assay measures DNA damage in individual cells. It was performed according to the instructions of the OxiSelect Comet Assay Kit (Cell Biolabs). Briefly, microscope slides were first covered with a normal melting point agarose to create a base layer. Then, 1-2×10^5 cells were embedded into 75 μL of low-melting-point agarose at 37° C. and the gel was cast over the first agarose layer. Then slides were immersed into a lysis buffer and kept for 1 hour at 4° C. After cell lysis, the slides were electrophoresed in alkaline electrophoresis buffer (300 mM NaOH, 1 mM EDTA, pH 13). The slides were then stained with Vista Green DNA dye. Comet tails were measured using Image J.

Pancreatic cancer cells = test: BrdU incorporation flow cytometry cell cycle analysis; type: cell-based, Human; conditions: Gem 250 nM
Procedure: Pancreatic cancer cells were treated with gemcitabine and EPZ015666 or EPZ015938, incorporated with BrdU (Sigma) for 1 hour and then fixed by 70% ethanol. BrdU staining was performed according to the manufacturer's instructions (BD Biosciences, Franklin Lakes, N.J., USA). Briefly, the fixed cells were washed with PBS and then resuspended in 2 N HCl for 20 min to denature the DNA. After washing with 0.1 M Na2B4O7, pH 8.5, to stop acid denaturation, the cells were resuspended and washed with 180 μL 0.5% polysorbate 20 (Sigma) with 1% normal goat serum (NGS) (Dako, Glostrup, Denmark) in PBS. Then, the cells were incubated with Alexa Fluor 647-conjugated anti-BrdU (mAb) (Invitrogen) for 1 hour at room temperature in the dark. After washing with PBS, the cells were resuspended in 2 μg/mL propidium iodide (PI) (Sigma) in PBS plus RNase, incubated at 37° C. for 30 min in the dark, and then analyzed by FACSCalibur flow cytometer (Becton-Dickinson, San Jose, Calif., USA).

mPanc96 cells [4] = test: γ-H2AX immunofluorescence staining; type: cell-based, Human
Procedure: Cells grown on glass coverslips (VWR) were rinsed with PBS, and then fixed in 4% formaldehyde for 15 min. The cells were subsequently treated with 0.2% Triton X-100 in PBS for 10 min. After blocking with 2% BSA in PBS containing 5% FBS at RT for 30 minutes, cells were incubated with an appropriate primary antibody γ-H2AX (Cell Signaling) for 2 hours. Then the cells were washed with PBS and incubated for 1 hour with secondary antibody [Alexa Fluor-488 goat anti-mouse immunoglobulin G (IgG) (H+L) conjugate or anti-rabbit IgG (H+L) conjugate (Invitrogen)]. After washing with PBS, the coverslips were dried, and then reversely covered onto slides (Fisher Scientific) by adding mounting medium with 4′,6-diamidino-2-phenylindole dihydrochloride (DAPI) (Vector Laboratories). A LSM-710 confocal microscope (Zeiss) was used to obtain fluorescence images.

IC50 ([1]; clones with even partial PRMT5 depletion (PRMT5 KO)) | IC50 ([1]; wild-type (WT) clones) | Compound | growth inhibition activity on colony formation (mPanc96 and PANC-1 cells; single agent, compared with the other PRMT5 inhibitor) | global SDMA (PRMT5) | HDR activity (HeLa DR13-9 cell line) | overall SDMA levels in tumors (xenograft tumors; Western blot of tumor tissues) | apoptosis (caspase-3 cleavage) (WT and PRMT5 KO cells) | NHEJ activity (NHEJ/DsRed293B cell line) | tumor volume ([2]; PRMT5 KO tumors) | tumor volume ([2]; WT tumors) | phospho-Chk1, γ-H2AX and phospho-RPA2 activation (PDAC cells) | sensitivity to Gem in longer-term colony formation (mPanc96 and PANC-1 cells; PRMT5 KO clones compared to WT cells) | γ-H2AX staining (IHC) in tumors (xenograft tumors; PRMT5 KO tumors vs WT tumors treated with Gem) | γ-H2AX in tumors (xenograft tumors; Western blot, PRMT5 KO tumors) | comet tail length (mPanc96 cells [3]) | cell cycle position (Pancreatic cancer cells; PRMT5 KO cells compared to WT cells) | cell cycle position (Pancreatic cancer cells; WT cells, EPZ015666 500 nM) | time to strong γ-H2AX foci post Gem treatment (mPanc96 cells [4]; PRMT5 KO cells, Gem 250 nM) | time to similar levels of γ-H2AX foci (mPanc96 cells [4]; WT cells, same concentration of Gem) | γ-H2AX foci formation levels (mPanc96 cells [4]; over 72 hours, PRMT5 KO vs WT cells, Gem treatment)
 |  | CC(=O)N1CCC(Nc2cc(C(=O)NC[C@H](O)CN3CCc4ccccc4C3)ncn2)CC1 [EPZ015938] | substantially more growth inhibition activity |  |  |  |  |  |  |  |  |  |  |  |  |  |  |  |  | 
 |  | O=C(NC[C@H](O)CN1CCc2ccccc2C1)c1cc(NC2COC2)ncn1 [EPZ015666] |  | significantly inhibits global SDMA | significantly inhibits the HDR activity | lower overall levels of SDMA | significant apoptosis (caspase-3 cleavage) selectively in WT cells but not in PRMT KO cells | significant increase in NHEJ activity |  |  |  |  |  |  |  |  |  |  |  | 
4 to 5 µM | ~50 µM | Nc1ccn([C@@H]2O[C@H](CO)[C@@H](O)C2(F)F)c(=O)n1 [Gem, 2′,2′-difluoro 2′-deoxycytidine] |  |  | significantly inhibits the HDR activity |  |  | significant increase in NHEJ activity | most significant reduction of tumor volumes | notable reduction of WT tumors | sustained and stronger | significantly more sensitive | significantly more γ-H2AX staining | significantly activated | significantly longer comet tail | significantly higher number of G2/M cells | partial delay in cell cycle with a substantial accumulation of cells in S-phase and partial increases in G2/M cells | 4 h | 48 to 72 h | significantly higher levels of γ-H2AX
